Patent publication US20210346329A1, “TCA CYCLE INTERMEDIATES AND METHODS OF USE THEREOF” (IMBRIA PHARMACEUTICALS, INC., priority 2018, published 2021)
Several values for one entry are separate records, joined by “and”; a condition that tells them apart may be missing. Identical values can stand only once. Like-named read-outs stand apart in the source and are kept apart here.

Description: Concentrations versus time data are plotted in FIG. 1 through FIG. 6.
[1] = SC 10 mg/kg, individual rat (777)
[2] = SC 10 mg/kg, individual rats 776, 777, 778, 10 mg/kg
[3] = SC 50 mg/kg, individual rats 779, 780, 781, 50 mg/kg
[4] = SC 100 mg/kg, individual rats 782, 783, 784, 100 mg/kg
[5] = SC 100 mg/kg, individual rats 782, 783, 100 mg/kg

Time post dosing at which maximum plasma concentrations were observed (SC 10 mg/kg): 15 min
Plasma concentration (SC 10 mg/kg, 0.50 hr, individual rats 776, 777, 778, 10 mg/kg): 1280 ng/mL (2×) and 854 ng/mL
Plasma concentration (SC 10 mg/kg, 0.50 hr, mean): 1138 ng/mL
Plasma concentration (SC 10 mg/kg, 1.0 hr, individual rats 776, 777, 778, 10 mg/kg): 430 ng/mL and 220 ng/mL and 415 ng/mL
Plasma concentration (SC 10 mg/kg, 1.0 hr, mean): 355 ng/mL
Plasma concentration (SC 10 mg/kg, 2.0 hr, individual rats 776, 777, 778, 10 mg/kg): 28.5 ng/mL and 10.6 ng/mL and 23.2 ng/mL
Plasma concentration (SC 10 mg/kg, 2.0 hr, mean): 20.8 ng/mL
Plasma concentration (SC 10 mg/kg, 4.0 hr, mean): 7.59 ng/mL
AUC∞ [1]: 1030 ng·h/mL
Dose-normalized AUC∞ [1]: 103 kg·ng·h/mL/mg
t1/2 [1]: 27.2 min
tmax (SC 10 mg/kg, individual rats 776, 777, 778): 15 min
Bioavailability (SC 10 mg/kg, individual rats 776, 777, 778, vs average IV dose-normalized AUClast, 10 mg/kg): 98.9% and 47.7% and 76.7%
Cmax [2]: 5090 ng/mL and 2090 ng/mL and 3260 ng/mL
MRTlast [2]: 30.2 min and 29.3 min and 31.6 min
AUClast (SC 10 mg/kg, mean): 1604 ng·h/mL
Cmax (SC 10 mg/kg, mean): 3480 ± 1512 ng/mL
MRTlast (SC 10 mg/kg, mean): 30.4 min
tmax (SC 10 mg/kg, mean): 15 min
Bioavailability (SC 10 mg/kg, mean, vs average IV dose-normalized AUClast): 74.4±25.7%
Dose-normalized AUClast (SC 10 mg/kg, mean, 10 mg/kg): 160 ± 55.4 kg·ng·h/mL/mg
Dose-normalized AUClast (SC 10 mg/kg, mean, listed as 13C4-Succinate, 10 mg/kg): 160 kg·ng·h/mL/mg
Time post dosing at which maximum plasma concentrations were observed (SC 50 mg/kg): 15 min
Plasma concentration (SC 50 mg/kg, 0.50 hr, mean): 12117 ng/mL
Plasma concentration (SC 50 mg/kg, 1.0 hr, individual rats 779, 780, 781, 50 mg/kg): 1020 ng/mL and 2420 ng/mL and 2020 ng/mL
Plasma concentration (SC 50 mg/kg, 1.0 hr, mean): 1820 ng/mL
Plasma concentration (SC 50 mg/kg, 2.0 hr, individual rats 779, 780, 781, 50 mg/kg): 102 ng/mL and 163 ng/mL and 122 ng/mL
Plasma concentration (SC 50 mg/kg, 2.0 hr, mean): 129 ng/mL
Plasma concentration (SC 50 mg/kg, 4.0 hr, individual rats 779, 780, 781, 50 mg/kg): 15.1 ng/mL and 10.3 ng/mL and 12.3 ng/mL
Plasma concentration (SC 50 mg/kg, 4.0 hr, mean): 12.6 ng/mL
Plasma concentration (SC 50 mg/kg, 8.0 hr, mean): 18.8 ng/mL
tmax (SC 50 mg/kg, individual rats 779, 780, 781): 15 min
Bioavailability (SC 50 mg/kg, individual rats 779, 780, 781, vs average IV dose-normalized AUClast, 50 mg/kg): 78.0% and 116% and 98.7%
MRTlast [3]: 33.5 min and 31.8 min and 30.3 min
AUClast (SC 50 mg/kg, mean): 10511 ng·h/mL
Cmax (SC 50 mg/kg, mean): 17333 ± 2214 ng/mL
MRTlast (SC 50 mg/kg, mean): 31.9 min
tmax (SC 50 mg/kg, mean): 15 min
Bioavailability (SC 50 mg/kg, mean, vs average IV dose-normalized AUClast): 97.6±19.0%
Dose-normalized AUClast (SC 50 mg/kg, mean, 50 mg/kg): 210 ± 41.0 kg·ng·h/mL/mg
Dose-normalized AUClast (SC 50 mg/kg, mean, listed as 13C4-Succinate, 50 mg/kg): 210 kg·ng·h/mL/mg
Time post dosing at which maximum plasma concentrations were observed (SC 100 mg/kg): 15 min
Plasma concentration (SC 100 mg/kg, 0.50 hr, mean): 21200 ng/mL
Plasma concentration (SC 100 mg/kg, 1.0 hr, individual rats 782, 783, 784, 100 mg/kg): 6840 ng/mL and 4980 ng/mL and 7750 ng/mL
Plasma concentration (SC 100 mg/kg, 1.0 hr, mean): 6523 ng/mL
Plasma concentration (SC 100 mg/kg, 2.0 hr, individual rats 782, 783, 784, 100 mg/kg): 364 ng/mL and 435 ng/mL and 779 ng/mL
Plasma concentration (SC 100 mg/kg, 2.0 hr, mean): 526 ng/mL
Plasma concentration (SC 100 mg/kg, 4.0 hr, individual rats 782, 783, 784, 100 mg/kg): 103 ng/mL and 40.8 ng/mL and 52.9 ng/mL
Plasma concentration (SC 100 mg/kg, 4.0 hr, mean): 65.6 ng/mL
Plasma concentration (SC 100 mg/kg, 8.0 hr, mean): 25.9 ng/mL
tmax (SC 100 mg/kg, individual rats 782, 783, 784): 15 min
Bioavailability (SC 100 mg/kg, individual rats 782, 783, 784, vs average IV dose-normalized AUClast, 100 mg/kg): 115% (2×) and 72.0%
MRTlast [4]: 35.8 min and 37.7 min and 39.6 min
AUC∞ [5]: 24719 ng·h/mL and 15530 ng·h/mL
t1/2 [5]: 84 min and 44.8 min
AUClast (SC 100 mg/kg, mean): 21630 ng·h/mL
AUC∞ (SC 100 mg/kg, mean): 20124 ng·h/mL
Cmax (SC 100 mg/kg, mean): 31000 ± 7451 ng/mL
Dose-normalized AUC∞ (SC 100 mg/kg, mean): 201 kg·ng·h/mL/mg
MRTlast (SC 100 mg/kg, mean): 37.7 min
t1/2 (SC 100 mg/kg, mean): 64.2 min
tmax (SC 100 mg/kg, mean): 15 min
Bioavailability (SC 100 mg/kg, mean, vs average IV dose-normalized AUClast): 100±24.6%
Dose-normalized AUClast (SC 100 mg/kg, mean, 100 mg/kg): 216 ± 52.9 kg·ng·h/mL/mg
Dose-normalized AUClast (SC 100 mg/kg, mean, listed as 13C4-Succinate, 100 mg/kg): 216 kg·ng·h/mL/mg
SMILES: O=[13C](O)[13CH2][13CH2][13C](=O)O [^13C4-succinate]
AUClast [2]: 2131 ng·h/mL and 1027 ng·h/mL and 1653 ng·h/mL
Plasma concentration (SC 50 mg/kg, 0.50 hr, individual rats 779, 780, 781, 50 mg/kg): 9750 ng/mL and 15500 ng/mL and 11100 ng/mL
AUClast [3]: 8405 ng·h/mL and 12496 ng·h/mL and 10632 ng·h/mL
Cmax [3]: 14800 ng/mL and 18300 ng/mL and 18900 ng/mL
Dose-normalized AUClast [3]: 168 kg·ng·h/mL/mg and 250 kg·ng·h/mL/mg and 213 kg·ng·h/mL/mg
Plasma concentration (SC 100 mg/kg, 0.50 hr, individual rats 782, 783, 784, 100 mg/kg): 24500 ng/mL and 13900 ng/mL and 25200 ng/mL
AUClast [4]: 24683 ng·h/mL and 15518 ng·h/mL and 24689 ng·h/mL
Cmax [4]: 37900 ng/mL and 23100 ng/mL and 32000 ng/mL
Dose-normalized AUClast [4]: 247 hr · kg · ng/mL/mg (2×) and 155 hr · kg · ng/mL/mg
Dose-normalized AUC∞ [5]: 247 kg·ng·h/mL/mg and 155 kg·ng·h/mL/mg
Change of exposure with increasing dose (SC 10, 50 and 100 mg/kg): nonlinear increase in exposure with increasing dose
Adverse reactions (subcutaneous dosing, 10, 50 and 100 mg/kg): No adverse reactions were observed
